Laboratory results reported in US20070086967A1, “Treatment of psoriasis with rosiglitazone” (priority 2003, published 2007).

Legend:
Assay type in all cases: in vivo, humans
[1] = test system: moderate to severe plaque psoriasis; experiment: Phase II placebo-controlled clinical study, Psoriasis Area and Severity Index (PASI)
Procedure: The Psoriasis Area Severity Index (PASI) score was developed by Fredeniksson and Petersson in 1978 ( Frederiksson T and Petersson U. Severe psoriasis-oral therapy with a new retinoid. Dermatologica. 1978;157:238-44). According to our preferred method of determining the PASI score,four main body areas are assessed: the head (h), the upper extremities (u) the trunk (t), and lower extremities (l) corresponding to 10; 20, 30 and 40% of the total body surface area, respectively. The buttocks are counted as part of the legs, the axilla and groin count as part of the trunk and the neck as part of the head. The area of psoriatic involvement of these four main areas (Ah, At, Au, Al) is given a numeric score for the percent involved by psoriasis: 1=1-9%; 2=10-29%; 3=30-49%; 4=50-69%; 5=70-89% and 6=90-100%. In order to evaluate the severity of the psoriatic lesions three target symptoms, erythema (E), thickness/indurabon (I), and desquamation/scaling (D) will be assessed according to a scale of 0-4, where 4 represents the severest possible involvement. In the case of i.e., erythema, 0=No symptoms; 1=slight erythema, 2=moderate erythema; 3=marked erythema, and 4=very marked erythema. The PASI score (0-72) is then calculated, from the following formula: […]
The PASI score varies in steps of 0.1 units from 0.0 to 72.0. Higher PASI scores indicate higher degrees of severity. The last mentioned score represents complete erythema of the severest possible degree, while 0.0 means no psoriatic lesions at all. Generally severe psoriasis is defined by a PASI score of 20 or more.
(§1) A phase II, multi-center, randomized, double-blind, placebo-controlled study involving 186 subjects compared the safety and efficacy of three doses (2 mg, 4 mg, and 8 mg) of rosiglitazone maleate (RSG) to placebo for eighteen weeks with two weeks follow-up in the treatment of moderate to severe plaque psoriasis. This study was designed to provide an assessment of the risk to benefit profile of three dose levels of RSG in subjects with psoriasis. 186 patients were enrolled and 108 patients completed the study. All patients were in the moderate to very severe category, although of the patients starting the study only 11 were moderate and the rest were severe or very severe.
(§2) Efficacy measurements included the Lattice System Global Psoriasis Score (LS-GPS) and the Psoriasis Area and Severity Index (PASI).

[2] = test system: moderate to severe plaque psoriasis; experiment: Phase II placebo-controlled clinical study, overall efficacy, onset of effect and patient photographs
Procedure: FIGS. 3, 4, 5 and 6: photographs of the back of a patient receiving 2 mg rosiglitazone at baseline and after 12 weeks, 18 weeks and follow-up (week 20).
FIGS. 7, 8 and 9: photographs of the lower leg of a patient receiving 8 mg rosiglitazone at baseline and after 12 weeks and 18 weeks.
as §1, §2

[3] = test system: moderate to severe plaque psoriasis; experiment: Phase II placebo-controlled clinical study, Lattice System Global Psoriasis Score (LS-GPS); conditions: for Improvement by 2 categories, number of patients / Improvement by 2 categories, percentage of patients / Improvement to clear/almost clear, number of patients / Improvement to clear/almost clear, percentage of patients / Improvement to clear/almost clear/mild, number of patients / Improvement to clear/almost clear/mild, percentage of patients: LS-GPS, 18 weeks
Excerpt: The Lattice System Global Psoriasis Score (LS-GPS) developed by Charles Ellis, M. D. is a physician's global assessment tool that provides an entire body assessment that combines total body surface area (BSA) involvement with average plaque qualities. The resulting LS-GPS is one of eight discrete values ranging from “Clear” to “Very Severe”.
According to the LS-GPS score the definitions are: Clear • 0% Body Surface Area (BSA) and no elevation, erythema or scale. Almost Clear: • 1-3% BSA, mild elevation, erythema or scale; or • 4-9% BSA, mild erythema or mild scale Mild: • 1-3% BSA, moderate or marked elevation, erythema or scale; or • 4-9% BSA, mild elevation or moderate erythema or moderate scale; or • 10-20% BSA, mild erythema or mild/moderate scale Mild to Moderate: • 4-9% BSA, moderate elevation or marked scale; or • 10-20% BSA, moderate erythema; or • 21-29% BSA, mild erythema or mild/moderate scale Moderate: • 4-9% BSA, marked elevation or marked erythema; or • 10-20% BSA, mild elevation; or • 30-50% BSA, mild erythema or mild scale Moderate to Severe: • 10-20% BSA, moderate elevation or marked scale; or • 21-29% mild elevation or moderate erythema; or • 51+% BSA, mild erythema or mild scale Severe: • 10-20% BSA, marked elevation or marked erythema; or • 21-29% BSA, moderate/marked elevation or marked erythema or marked scale; or • 30-50% BSA, mild elevation or moderate erythema or moderate scale Very Severe: • 30-50% BSA, moderate/marked elevation or marked erythema or marked scale; or • 51+% BSA, any elevation or moderate/marked erythema or moderate/marked scale.
as §1, §2
“Observed” refers to data on patients who completed the trial. “LOCF” (last observation carried forward) includes data on patients who withdrew from the trial for some reason and includes their last observation in the data. The percentage is out of the total number of initial participants in the trial.

subjects with psoriasis = experiment: Phase II placebo-controlled clinical study, safety
Procedure: as §1

[4] = Week 12, 2 mg and 8 mg groups compared to placebo
[5] = Observed (completers), 2 mg oral daily
[6] = Observed (completers), 4 mg oral daily
[7] = Observed (completers), 8 mg oral daily
[8] = 18 weeks of oral, daily treatment, 2, 4, 8 mg

## CN(CCOc1ccc(CC2SC(=O)NC2=O)cc1)c1ccccn1 (stereo not drawn) [RSG, 5-[4-[2-(N-methyl-N-(2-pyridyl)amino)ethoxy]benzyl]thiazolidine-2,4-dione]
[1]; 2 and 8 mg group at 12 weeks
  PASI results (FIG. 2, change from baseline, LOCF): particularly good
[1]; Week 12, 2 mg and 8 mg group
  mean percent change in PASI: statistically significant
[1]; [4]
  proportion of subjects who achieved a 50% improvement according the PASI: improvements
  proportion of subjects who achieved a 75% improvement according the PASI: improvements
[1]; Week 18, 2 mg group
  PASI mean percent change: statistically significant
[1]; Week 18, 8 mg dose
  other PASI endpoints: comparable efficacy with the 2 mg dose
[1]; two weeks follow-up after 18 weeks of treatment, all treatment groups
  improvements in mean percent change in PASI total scores during follow-up period: maintained
[2]; 4 mg group, high dropout rate (24/44)
  efficacy results versus placebo: did not separate appreciably from placebo
[2]; Week 12 and Week 18, 2 mg and 8 mg treatment groups
  clinical effects: Clinically meaningful effects
[2]; one patient on 2 mg, baseline, 12 weeks, 18 weeks, follow-up week 20
  efficacy in photographs of a patient's back (FIGS. 3-6): good efficacy
[2]; one patient on 8 mg, baseline, 12 weeks, 18 weeks
  efficacy in photographs of a patient's lower leg (FIGS. 7-9): good efficacy
[2]; oral, 2 to 8 mg/day
  onset of action according to most measures: around 2 weeks
  onset of activity: 6-8 weeks
  time to noticeably beneficial effects: 12-18 weeks
[2]; study only 18 weeks, peak efficacy may not have been observed
  time of peak effect (other endpoints): 18 weeks
[3]; 8 mg group at 18 weeks
  LS-GPS results (FIG. 1, percentage of completed patients clear, almost clear or mild): particularly good
[3]; LOCF, 2 mg oral daily
  Improvement by 2 categories, number of patients: 12
  Improvement by 2 categories, percentage of patients: 24%
  Improvement to clear/almost clear, number of patients: 2
  Improvement to clear/almost clear, percentage of patients: 4%
  Improvement to clear/almost clear/mild, number of patients: 5
  Improvement to clear/almost clear/mild, percentage of patients: 10%
[3]; LOCF, 4 mg oral daily
  Improvement by 2 categories, number of patients: 6
  Improvement by 2 categories, percentage of patients: 14%
  Improvement to clear/almost clear, number of patients: 1
  Improvement to clear/almost clear, percentage of patients: 2%
  Improvement to clear/almost clear/mild, number of patients: 4
  Improvement to clear/almost clear/mild, percentage of patients: 9%
[3]; LOCF, 8 mg oral daily
  Improvement by 2 categories, number of patients: 11
  Improvement by 2 categories, percentage of patients: 25%
  Improvement to clear/almost clear, number of patients: 3
  Improvement to clear/almost clear, percentage of patients: 7%
  Improvement to clear/almost clear/mild, number of patients: 11
  Improvement to clear/almost clear/mild, percentage of patients: 25%
[3]; [5]
  Improvement by 2 categories, number of patients: 11
  Improvement by 2 categories, percentage of patients: 28%
  Improvement to clear/almost clear, number of patients: 2
  Improvement to clear/almost clear, percentage of patients: 5%
  Improvement to clear/almost clear/mild, number of patients: 5
  Improvement to clear/almost clear/mild, percentage of patients: 13%
[3]; [6]
  Improvement by 2 categories, number of patients: 4
  Improvement by 2 categories, percentage of patients: 20%
  Improvement to clear/almost clear, number of patients: 1
  Improvement to clear/almost clear, percentage of patients: 5%
  Improvement to clear/almost clear/mild, number of patients: 2
  Improvement to clear/almost clear/mild, percentage of patients: 10%
[3]; [7]
  Improvement by 2 categories, number of patients: 10
  Improvement by 2 categories, percentage of patients: 37%
  Improvement to clear/almost clear, number of patients: 3
  Improvement to clear/almost clear, percentage of patients: 11%
  Improvement to clear/almost clear/mild, number of patients: 10
  Improvement to clear/almost clear/mild, percentage of patients: 37%
[3]; [4]
  LS-GPS summary: improvements
[3]; Week 12, in each of the RSG groups (2 mg, 4 mg, 8 mg), none in placebo
  subjects who achieved Clear/Almost Clear in the LS-GPS (primary endpoint): one
[3]; Week 18, 2 mg group
  distribution of the LS-GPS: statistically significant
[3]; Week 18, 8 mg dose
  other LS-GPS endpoints: comparable efficacy with the 2 mg dose
[3]; Week 18, 8 mg group
  odds for successful treatment (Clear/Almost Clear/Mild LS-GPS) relative to placebo group: ~5 times
[3]; Week 18, 8 mg group vs placebo
  proportion of subjects who achieved Clear/Almost Clear/Mild, significance: achieved statistical significance
[3]; Week 18, all RSG groups together, none on placebo
  subjects who achieved an improvement of Clear/Almost Clear: six
Subjects with psoriasis; [8]
  safety findings: no unexpected safety findings
  safety profile: comparable across treatment groups
Subjects with psoriasis; all doses
  adverse events: comparable with placebo
  tolerability: well tolerated
